Measured values as given in patent US9725448B2, “Neprilysin inhibitors” (THERAVANCE BIOPHARMA R&D IP, LLC, priority 2011, dated 2017).

Molecular target: T1, human NEP (Homo sapiens, UniProt P08473)
T1 construct: purchased R&D Systems, Minneapolis, Minn; 1182-ZN
Assay: In vitro enzyme inhibition assay at human NEP (fluorogenic peptide substrate)
Type: biochemical
Settings: pKi values at human NEP (recombinant), given as ranges
Protocol: The inhibitory activities of compounds at human and rat neprilysin (EC 3.4.24.11; NEP) and human angiotensin converting enzyme (ACE) were determined using in vitro assays as described below.
Recombinant human NEP and recombinant human ACE were obtained commercially (R&D Systems, Minneapolis, Minn., catalog numbers 1182-ZN and 929-ZN, respectively). The fluorogenic peptide substrate Mca-D-Arg-Arg-Leu-Dap-(Dnp)-OH (Medeiros et al. (1997) Braz. J. Med. Biol. Res. 30:1157-62; Anaspec, San Jose, Calif.) and Abz-Phe-Arg-Lys(Dnp)-Pro-OH (Araujo et al. (2000) Biochemistry 39:8519-8525; Bachem, Torrance, Calif.) were used in the NEP and ACE assays respectively.
The assays were performed in 384-well white opaque plates at 37° C. using the fluorogenic peptide substrates at a concentration of 10 μM in Assay Buffer (NEP: 50 mM HEPES, pH 7.5, 100 mM NaCl, 0.01% polyethylene glycol sorbitan monolaurate (Tween-20), […]; ACE: 50 mM HEPES, pH 7.5, 100 mM NaCl, 0.01% Tween-20, 1 μM ZnSO4).
Test compounds were assayed over the range of concentrations from 10 μM to 20 pM. Test compounds were added to the enzymes and incubated for 30 minute at 37° C. prior to initiating the reaction by the addition of substrate. Reactions were terminated after 20 minutes of incubation at 37° C. by the addition of glacial acetic acid to a final concentration of 3.6% (v/v).
Plates were read on a fluorometer with excitation and emission wavelengths set to 320 nm and 405 nm, respectively. Inhibition constants were obtained by nonlinear regression of the data using the equation (GraphPad Software, Inc., San Diego, Calif.): ν=ν0/[1+(I/K′)] where ν is the reaction rate, ν0 is the uninhibited reaction rate, I is the inhibitor concentration and K′ is the apparent inhibition constant.
Compounds of the invention were tested in this assay and found to have pKi values at human NEP as follows.

T1 sequence (P08473 52-750 limits assumed): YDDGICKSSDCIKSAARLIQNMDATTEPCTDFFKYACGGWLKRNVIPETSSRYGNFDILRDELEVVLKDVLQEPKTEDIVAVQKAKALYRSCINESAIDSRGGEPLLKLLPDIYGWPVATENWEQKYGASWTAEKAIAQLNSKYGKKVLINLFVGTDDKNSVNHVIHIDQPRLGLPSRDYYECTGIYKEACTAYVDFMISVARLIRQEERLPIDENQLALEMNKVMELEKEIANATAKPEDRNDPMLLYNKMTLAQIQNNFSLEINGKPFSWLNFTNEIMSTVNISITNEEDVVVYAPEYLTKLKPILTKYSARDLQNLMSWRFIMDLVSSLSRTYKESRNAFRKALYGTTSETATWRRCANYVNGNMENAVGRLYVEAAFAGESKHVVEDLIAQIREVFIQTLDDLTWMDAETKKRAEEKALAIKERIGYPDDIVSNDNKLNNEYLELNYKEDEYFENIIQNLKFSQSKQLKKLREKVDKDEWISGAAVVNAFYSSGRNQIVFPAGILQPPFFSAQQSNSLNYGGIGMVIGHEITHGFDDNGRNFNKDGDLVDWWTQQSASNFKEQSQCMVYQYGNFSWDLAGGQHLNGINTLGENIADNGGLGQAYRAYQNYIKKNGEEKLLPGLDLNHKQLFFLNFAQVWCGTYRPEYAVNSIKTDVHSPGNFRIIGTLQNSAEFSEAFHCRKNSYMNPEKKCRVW

| Compound | Ki |
| --- | --- |
| CC(O)(CN(Cc1ccc(-c2cccc(F)c2)cc1)NC(=O)c1cc(O)no1)C(=O)O (stereo not shown) [Example 5, 3-[N-(3′-Fluorobiphenyl-4-ylmethyl)-N′-(3-hydroxy-isoxazole-5-carbonyl)-hydrazino]-2-hydroxy-2-methyl-propionic Acid] | 1.26 to 10 nM |
| CN(C)C(=O)c1cc(C(=O)NN(Cc2ccc(-c3ccccc3)cc2)CC(C)(O)C(=O)O)[nH]n1 (stereo not shown) [Example 4-7, 3-[N-Biphenyl-4-ylmethyl-N′-(5-dimethylcarbamoyl-2H-pyrazole-3-carbonyl)-hydrazino]-2-hydroxy-2-methyl-propionic acid] | 12.6 to 100 nM |
| C[C@@](O)(CN(Cc1ccc(-c2cccc(Cl)c2)cc1)NC(=O)c1c[nH]c(=O)o1)C(=O)O [Example 7-21, (R)-3-[N-(3′-Chlorobiphenyl-4-ylmethyl)-N′-(2-oxo-2,3-dihydro-oxazole-5-carbonyl)-hydrazino]-2-hydroxy-2-methyl-propionic acid] | 1.26 to 10 nM |
| CC(O)(CN(Cc1ccc(-c2ccccc2)cc1)NC(=O)c1cnn[nH]1)C(=O)O (stereo not shown) [Example 4-1, 3-[N-Biphenyl-4-ylmethyl-N′-(3H-[1,2,3]triazole-4-carbonyl)-hydrazino]-2-hydroxy-2-methyl-propionic acid] | 12.6 to 100 nM |
| C[C@@](O)(CN(Cc1ccc(-c2cccc(Cl)c2)cc1)NC(=O)c1cc(C(=O)O)ncn1)C(=O)O [Example 7-26, 6-[N′—((R)-2-Carboxy-2-hydroxy-propyl)-N′-(3′-chlorobiphenyl-4-ylmethyl)-hydrazinocarbonyl]-pyrimidine-4-carboxylic acid] | ≤ 1 nM |
| CC(O)(CN(Cc1ccc(-c2ccccc2)cc1)NC(=O)c1cc(C(=O)N2CCCC2)n[nH]1)C(=O)O (stereo not shown) [Example 4-8, 3-{N-Biphenyl-4-ylmethyl-N′-[5-(pyrrolidine-1-carbonyl)-2H-pyrazole-3-carbonyl]-hydrazino}-2-hydroxy-2-methyl-propionic acid] | 12.6 to 100 nM |
| CN(C)C(=O)c1cc(C(=O)NN(Cc2ccc(-c3cccc(Cl)c3)cc2)C[C@@](C)(O)C(=O)O)[nH]n1 [Example 7-9, (R)-3-[N-(3′-Chlorobiphenyl-4-ylmethyl)-N′-(5-dimethylcarbamoyl-2H-pyrazole-3-carbonyl)-hydrazino]-2-hydroxy-2-methyl-propionic acid] | 12.6 to 100 nM |
| C[C@@](O)(CN(Cc1ccc(-c2ccccc2Cl)cc1)NC(=O)c1cc(O)no1)C(=O)O [Example 7-15, (R)-3-[N-(2′-Chlorobiphenyl-4-ylmethyl)-N′-(3-hydroxy-isoxazole-5-carbonyl)-hydrazino]-2-hydroxy-2-methyl-propionic acid] | 12.6 to 100 nM |
| C[C@@](O)(CN(Cc1ccc(-c2cc(Cl)cc(Cl)c2)cc1)NC(=O)c1cc(O)no1)C(=O)O [Example 7-13, (R)-3-[N-(3′,5′-Dichlorobiphenyl-4-ylmethyl)-N′-(3-hydroxy-isoxazole-5-carbonyl)-hydrazino]-2-hydroxy-2-methyl-propionic acid] | 12.6 to 100 nM |
| CC(O)(C[C@@H](Cc1ccc(-c2ccccc2)cc1)NC(=O)c1n[nH]c(Cl)n1)C(=O)O (stereo partly drawn) [Example 2-3, (R)-5-Biphenyl-4-yl-4-[(5-chloro-2H-[1,2,4]triazole-3-carbonyl)-amino]-2-hydroxy-2-methyl-pentanoic acid] | 12.6 to 100 nM |
| C[C@@](O)(CN(Cc1ccc(-c2cccc(Cl)c2)cc1)NC(=O)c1cc(C(=O)O)n[nH]1)C(=O)O [Example 7-10, 5-[N′—((R)-2-Carboxy-2-hydroxy-propyl)-N′-(3′-chlorobiphenyl-4-ylmethyl)-hydrazinocarbonyl]-1H-pyrazole-3-carboxylic acid] | ≤ 1 nM |
| CC(O)(CN(Cc1ccc(-c2ccccc2)cc1)NC(=O)c1cc(O)no1)C(=O)O (stereo not shown) [Example 3B, 3-[N-Biphenyl-4-ylmethyl-N′-(3-hydroxy-isoxazole-5-carbonyl)-hydrazino]-2-hydroxy-2-methyl-propionic acid] | 1.26 to 10 nM |
| C[C@](O)(C[C@@H](Cc1ccc(-c2ccccc2)cc1)NC(=O)c1cnc2nn[nH]c2c1)C(=O)O [Example 2-6, (2S,4R)-5-Biphenyl-4-yl-2-hydroxy-2-methyl-4-[(1H-[1,2,3]triazolo[4,5-b]pyridine-6-carbonyl)-amino]-pentanoic acid] | 12.6 to 100 nM |
| C[C@@](O)(CN(Cc1ccc(-c2ccccc2F)cc1)NC(=O)c1cc(O)no1)C(=O)O [Example 7-17, (R)-3-[N-(2′-Fluorobiphenyl-4-ylmethyl)-N′-(3-hydroxy-isoxazole-5-carbonyl)-hydrazino]-2-hydroxy-2-methyl-propionic acid] | 1.26 to 10 nM |
| C[C@@](O)(CN(Cc1ccc(-c2cccc(Cl)c2)cc1)NC(=O)c1cc(O)no1)C(=O)O [Example 7-11, (R)-3-[N-(3′-Chlorobiphenyl-4-ylmethyl)-N′-(3-hydroxy-isoxazole-5-carbonyl)-hydrazino]-2-hydroxy-2-methyl-propionic acid] | ≤ 1 nM |
| C[C@@](O)(CN(Cc1ccc(-c2cc(Cl)ccc2F)cc1)NC(=O)c1c[nH]c(=O)o1)C(=O)O [Example 7-22, (R)-3-[N-(5′-Chloro-2′-fluorobiphenyl-4-ylmethyl)-N′-(2-oxo-2,3-dihydro-oxazole-5-carbonyl)-hydrazino]-2-hydroxy-2-methyl-propionic acid] | 1.26 to 10 nM |
| C[C@@](O)(CN(Cc1ccc(-c2ccccc2O)cc1)NC(=O)c1cc(O)no1)C(=O)O [Example 7-16, (R)-2-Hydroxy-3-[N-(2′-hydroxy-biphenyl-4-ylmethyl)-N′-(3-hydroxy-isoxazole-5-carbonyl)-hydrazino]-2-methyl-propionic acid] | 1.26 to 10 nM |
| C[C@@](O)(CN(Cc1ccc(-c2cc(Cl)ccc2F)cc1)NC(=O)c1cc(O)no1)C(=O)O [Example 6A, (R)-3-[N-(5′-Chloro-2′-fluorobiphenyl-4-ylmethyl)-N′-(3-hydroxy-isoxazole-5-carbonyl)-hydrazino]-2-hydroxy-2-methyl-propionic acid] | ≤ 1 nM |
| COc1ccccc1-c1ccc(CN(C[C@@](C)(O)C(=O)O)NC(=O)c2cc(O)no2)cc1 [Example 7-14, (R)-2-Hydroxy-3-[N′-(3-hydroxy-isoxazole-5-carbonyl)-N-(2′-methoxy-biphenyl-4-ylmethyl)-hydrazino]-2-methyl-propionic acid] | 1.26 to 10 nM |

Further lines, results first:

| Ki | Compound |
| --- | --- |
| ≤ 1 nM | O=C(N[C@H](Cc1ccc(-c2ccccc2)cc1)CC1(C(=O)O)CC1)c1cc(O)no1 [Example 11-5, 1-{(R)-3-Biphenyl-4-yl-2-[(3-hydroxy-isoxazole-5-carbonyl)-amino]-propyl}-cyclopropanecarboxylic acid] |
| 1.26 to 10 nM | O=C(N[C@H](Cc1ccc(-c2ccccc2)cc1)CC1(C(=O)O)CC1)c1cnc(O)nc1 [Example 11-8, 1-{(R)-3-Biphenyl-4-yl-2-[(2-hydroxy-pyrimidine-5-carbonyl)-amino]-propyl}-cyclopropanecarboxylic acid] |
| 12.6 to 100 nM | O=C(N[C@H](Cc1ccc(-c2ccccc2)cc1)CC1(C(=O)O)CC1)c1cnn[nH]1 [Example 11-1, 1-{(R)-3-Biphenyl-4-yl-2-[(3H-[1,2,3]triazole-4-carbonyl)-amino]-propyl}-cyclopropanecarboxylic acid] |
| 12.6 to 100 nM | CC(C)(C[C@@H](Cc1ccc(-c2ccccc2)cc1)NC(=O)c1ncn[nH]1)C(=O)O [Example 9-4, (R)-5-Biphenyl-4-yl-2,2-dimethyl-4-[(2H-[1,2,4]triazole-3-carbonyl)-amino]-pentanoic acid] |
| 12.6 to 100 nM | CC(C)CN(C)C(=O)c1cc(C(=O)N[C@H](Cc2ccc(-c3ccccc3)cc2)CC(C)(C)C(=O)O)[nH]n1 [Example 9-14, (R)-5-Biphenyl-4-yl-4-{[5-(isobutyl-methyl-carbamoyl)-2H-pyrazole-3-carbonyl]-amino}-2,2-dimethyl-pentanoic acid] |
| 1.26 to 10 nM | CC(C)(C[C@@H](Cc1ccc(-c2ccccc2)cc1)NC(=O)c1cnc(O)nc1)C(=O)O [Example 9-5, (R)-5-Biphenyl-4-yl-4-[(2-hydroxy-pyrimidine-5-carbonyl)-amino]-2,2-dimethyl-pentanoic acid] |
| 1.26 to 10 nM | CC(C)(C[C@@H](Cc1ccc(-c2ccccc2)cc1)NC(=O)c1cc(C(=O)N2CCC[C@H]2C(=O)O)n[nH]1)C(=O)O [Example 9-11, (S)-1-[5-((R)-1-Biphenyl-4-ylmethyl-3-carboxy-3-methyl-butylcarbamoyl)-1H-pyrazole-3-carbonyl]-pyrrolidine-2-carboxylic acid] |
| 12.6 to 100 nM | CNC(=O)c1cc(C(=O)N[C@H](Cc2ccc(-c3ccccc3)cc2)CC(C)(C)C(=O)O)[nH]n1 [Example 9-12, (R)-5-Biphenyl-4-yl-2,2-dimethyl-4-[(5-methylcarbamoyl-2H-pyrazole-3-carbonyl)-amino]-pentanoic acid] |
| 12.6 to 100 nM | CC(=O)c1cc(C(=O)N[C@H](Cc2ccc(-c3ccccc3)cc2)CC(C)(C)C(=O)O)[nH]n1 [Example 9-18, (R)-4-[(5-Acetyl-2H-pyrazole-3-carbonyl)-amino]-5-biphenyl-4-yl-2,2-dimethyl-pentanoic acid] |
